“And” between values parts separate entries of the source, which are not always exact repeats. Equal values may be shown once.
Tested on: 521955-158-R2-J5-PDC complex spheroid viability
Test: Anticancer human tumor 521955-158-R2-J5-PDC patient-derived pancreatic carcinoma cell line growth inhibition
Details: for viability, T/C: stronger effect = lower value; active = viability on the fitted dose curve at most 10% of control; inactive = the rest
Summary of the method: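 Multicellular complex spheroids of tumor cells with human endothelial cells (HUVEC) and mesenchymal stem cells; the LSD1 inhibitor iadademstat was combined with standard-of-care or investigational agents. Top concentration at or near clinical Cmax, half-log dilutions; final DMSO ≤0.25%.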

[1] = curve of first compound, second compound 0.1 µM
[2] = curve of first compound, second compound 0.316 µM
[3] = curve of first compound, second compound 1 µM
[4] = curve of first compound, second compound 3.16 µM
[5] = curve of first compound, second compound 10 µM
[6] = second compound 0.1 µM, first compound 0.00949 µM
[7] = second compound 0.1 µM, first compound 0.03 µM
[8] = second compound 0.1 µM, first compound 0.0949 µM
[9] = second compound 0.1 µM, first compound 0.3 µM
[10] = second compound 0.316 µM, first compound 0.00949 µM
[11] = second compound 0.316 µM, first compound 0.03 µM
[12] = second compound 0.316 µM, first compound 0.0949 µM
[13] = second compound 0.316 µM, first compound 0.3 µM
[14] = second compound 1 µM, first compound 0.00949 µM
[15] = second compound 1 µM, first compound 0.03 µM
[16] = second compound 1 µM, first compound 0.0949 µM
[17] = second compound 1 µM, first compound 0.3 µM
[18] = second compound 3.16 µM, first compound 0.00949 µM
[19] = second compound 3.16 µM, first compound 0.03 µM
[20] = second compound 3.16 µM, first compound 0.0949 µM
[21] = second compound 3.16 µM, first compound 0.3 µM
[22] = second compound 10 µM, first compound 0.00949 µM
[23] = second compound 10 µM, first compound 0.03 µM
[24] = second compound 10 µM, first compound 0.0949 µM
[25] = second compound 10 µM, first compound 0.3 µM
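Also: spheroids exposed to agents for seven days.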
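For viability, T/C in this document: percent of DMSO vehicle control luminescence viability.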

Cn1ncnc1C1c2n[nH]c(=O)c3cc(F)cc(c23)NC1c1ccc(F)cc1 (configuration not stated) + NC1CC1c1ccc(-c2cccc(O)c2)cc1
inactive: viability, T/C (second compound 0.1 µM, first compound 0.000316 µM) 91.4% | viability, T/C (second compound 0.1 µM, first compound 0.001 µM) 89.3% | viability, T/C (second compound 0.1 µM, first compound 0.00316 µM) 92.2% | viability, T/C (second compound 0.1 µM, first compound 0.01 µM) 80.4% | viability, T/C (second compound 0.1 µM, first compound 0.0316 µM) 77.3% | viability, T/C (second compound 0.1 µM, first compound 0.1 µM) 76.2% | viability, T/C (second compound 0.316 µM, first compound 0.000316 µM) 91.5% | viability, T/C (second compound 0.316 µM, first compound 0.001 µM) 100% | viability, T/C (second compound 0.316 µM, first compound 0.00316 µM) 92.9% | viability, T/C (second compound 0.316 µM, first compound 0.01 µM) 88.8% | viability, T/C (second compound 0.316 µM, first compound 0.0316 µM) 83% | viability, T/C (second compound 0.316 µM, first compound 0.1 µM) 78.9% | viability, T/C (second compound 1 µM, first compound 0.000316 µM) 82% | viability, T/C (second compound 1 µM, first compound 0.001 µM) 83.8% | viability, T/C (second compound 1 µM, first compound 0.00316 µM) 93.1% | viability, T/C (second compound 1 µM, first compound 0.01 µM) 91.8% | viability, T/C (second compound 1 µM, first compound 0.0316 µM) 94.9% | viability, T/C (second compound 1 µM, first compound 0.1 µM) 81.1% | viability, T/C (second compound 3.16 µM, first compound 0.000316 µM) 94.9% | viability, T/C (second compound 3.16 µM, first compound 0.001 µM) 103% | viability, T/C (second compound 3.16 µM, first compound 0.00316 µM) 101% | viability, T/C (second compound 3.16 µM, first compound 0.01 µM) 95% | viability, T/C (second compound 3.16 µM, first compound 0.0316 µM) 89% | viability, T/C (second compound 3.16 µM, first compound 0.1 µM) 84.5% | viability, T/C (second compound 10 µM, first compound 0.000316 µM) 97.8% | viability, T/C (second compound 10 µM, first compound 0.001 µM) 96.1% | viability, T/C (second compound 10 µM, first compound 0.00316 µM) 108% | viability, T/C (second compound 10 µM, first compound 0.01 µM) 94.4% | viability, T/C (second compound 10 µM, first compound 0.0316 µM) 90.2% | viability, T/C (second compound 10 µM, first compound 0.1 µM) 87.7%
> 100 nM: IC50 [1] | IC50 [2] | IC50 [3] | IC50 [4] | IC50 [5]

CC[C@@]1(O)C(=O)OCc2c1cc1n(c2=O)Cc2cc3c(CN(C)C)c(O)ccc3nc2-1
active: viability, T/C (compound 0.0316 µM) 7.49% and 11.1% | viability, T/C (compound 0.1 µM) 6.01% and 6.55%
inactive: viability, T/C (compound 0.000316 µM) 108% and 106% | viability, T/C (compound 0.001 µM) 109% and 103% | viability, T/C (compound 0.00316 µM) 77.4% and 85.3% | viability, T/C (compound 0.01 µM) 14.3% and 24.3%
5.21 nM and 6.17 nM: IC50 (curve of compound)

COc1cc(C2c3cc4c(cc3C(OC3OC5COC(C)OC5C(O)C3O)C3COC(=O)C23)OCO4)cc(OC)c1O (configuration not stated) + NC1CCC(NC2CC2c2ccccc2)CC1
inactive: viability, T/C [6] 106% | viability, T/C [7] 92.6% | viability, T/C [8] 35.4% | viability, T/C [9] 15.4% | viability, T/C [10] 102% | viability, T/C [11] 88.5% | viability, T/C [12] 40.6% | viability, T/C [13] 15.8% | viability, T/C [14] 93.3% | viability, T/C [15] 77.7% | viability, T/C [16] 30.6% | viability, T/C [17] 16.2% | viability, T/C [18] 96.6% | viability, T/C [19] 91.3% | viability, T/C [20] 41.2% | viability, T/C [21] 17.7% | viability, T/C (second compound 3.16 µM, first compound 0.949 µM) 9.09% | viability, T/C [22] 99.4% | viability, T/C [23] 94.4% | viability, T/C [24] 35.6% | viability, T/C [25] 18% | viability, T/C (second compound 10 µM, first compound 0.949 µM) 7.96% | viability, T/C (second compound 10 µM, first compound 3 µM) 6.31%
76.7 nM: IC50 [2]
active: viability, T/C (second compound 0.1 µM, first compound 0.949 µM) 9.48% | viability, T/C (second compound 0.1 µM, first compound 3 µM) 7.12% | viability, T/C (second compound 0.316 µM, first compound 0.949 µM) 10.4% | viability, T/C (second compound 0.316 µM, first compound 3 µM) 6.65% | viability, T/C (second compound 1 µM, first compound 0.949 µM) 8.2% | viability, T/C (second compound 1 µM, first compound 3 µM) 6.77% | viability, T/C (second compound 3.16 µM, first compound 3 µM) 7.34%
71.4 nM: IC50 [1]
59.8 nM: IC50 [3]
79.1 nM: IC50 [4]
72.2 nM: IC50 [5]

CCc1c2c(nc3ccc(O)cc13)-c1cc3c(c(=O)n1C2)COC(=O)[C@]3(O)CC + NC1CC1c1ccc(-c2cccc(O)c2)cc1
active: viability, T/C (second compound 0.1 µM, first compound 0.003 µM) 8.53% | viability, T/C [6] 1.37% | viability, T/C [7] 0.77% | viability, T/C [8] 0.88% | viability, T/C [9] 1.18% | viability, T/C (second compound 0.316 µM, first compound 0.003 µM) 8.17% | viability, T/C [10] 1.18% | viability, T/C [11] 0.73% | viability, T/C [12] 0.87% | viability, T/C [13] 1.5% | viability, T/C (second compound 1 µM, first compound 0.003 µM) 9.8% | viability, T/C [14] 1.34% | viability, T/C [15] 1.1% | viability, T/C [16] 0.66% | viability, T/C [17] 1.78% | viability, T/C (second compound 3.16 µM, first compound 0.003 µM) 8.84% | viability, T/C [18] 1.07% | viability, T/C [19] 0.72% | viability, T/C [20] 0.84% | viability, T/C [21] 2.14% | viability, T/C (second compound 10 µM, first compound 0.003 µM) 13% | viability, T/C [22] 1.18% | viability, T/C [23] 0.43% | viability, T/C [24] 0.52% | viability, T/C [25] 0.74%
inactive: viability, T/C (second compound 0.1 µM, first compound 0.000949 µM) 10.3% | viability, T/C (second compound 0.316 µM, first compound 0.000949 µM) 14% | viability, T/C (second compound 1 µM, first compound 0.000949 µM) 11.7% | viability, T/C (second compound 3.16 µM, first compound 0.000949 µM) 13.4% | viability, T/C (second compound 10 µM, first compound 0.000949 µM) 17.5%
< 0.949 nM: IC50 [1] | IC50 [2] | IC50 [3] | IC50 [4] | IC50 [5]

Reference: PubChem BioAssay AID1918937 (Molecular Pharmacology Branch, DTP, NCI, 2023)
